Where no end group is shown, it is not given here.

For this series, the system named is NCI-H522 cells (POTE+/HLA-A2). Briefly: CTL cytotoxicity against human cancer cells. The following applies: HHD-2 mice immunized with 50 nmol peptide, restimulated 7 days with 1000 nM peptide; POTE-expressing NCI-H522 human lung cancer cells. It counts as cell-based. The procedure: FIGS. 8A-8B are graphs showing anti-tumor cytotoxicity induced by enhanced POTE epitopes. AAD mice were immunized s.c. with 50 nmol of peptide in 100 μl of emulsion. (FIG. 8A) Anti-tumor cytotoxicity against a POTE-expressing human lung cancer cell line NCI-H522 induced by POTE 553-1Y, 323-3F and 252-9V. HHD-2 mice were immunized with 50 nmol of peptide in 100 μl of emulsion and restimulated for 7 days with 1000 nM peptide before being tested for ability to lyse the tumor cells. (FIG. 8B) Summary of the anti-tumor cytotoxicity in POTE-expressing and non-POTE-expressing human tumor cells. NCI-H522 is a human lung cancer line expressing both POTE and HLA-A2, whereas HTB-19 is a human mammary carcinoma that expresses POTE but not HLA-A2, and MDA-MB-231 is a human mammary carcinoma cell line expressing HLA-A2 but not POTE.
AAD or HHD-2 mice were immunized subcutaneously (s.c.) in the base of the tail with 100 μl of an emulsion containing 1:1 incomplete Freund's adjuvant (Sigma) and PBS with peptides and cytokines (50 nmol of CTL epitope, 50 nmol of hepatitis B virus core 128-140 helper epitope, 5 μg of mouse interleukin-12, and 5 μg of mouse granulocyte macrophage colony-stimulating factor). Cytokines were purchased from Peprotech (Rocky Hill, N.J.). Mice were boosted 2 weeks later, and the spleens were removed 2 weeks after the boost. For all experiments, groups of three mice were used.
Splenocytes from the immunized mice were re-stimulated with peptide-loaded splenocytes (1 μM, or 10 nM). On day 1 and day 5, rat T STIM™ (BD Bioscience) was added as a source of IL-2. One week later, CTL activity was measured by using a 4-hour ^51Cr releasing assay. […] The percentage of specific ^51Cr release is calculated as 100× [(experimental release-spontaneous release)/(maximum release-spontaneous release)]. Spontaneous release is determined from target cells incubated without effector cells, and maximum release is determined in the presence of 5% triton-X. C1R.AAD or C1R.A2.1 cell lines were used as targets. […]

For KLMAKALLV [POTE 252-9V], the “anti-tumor cytotoxicity of peptide-induced CTLs” value (shortened to “anti-tumor cytotoxicity”) is “did not kill POTE-expressing cancer cells”.

LLFEQNVDV [POTE 323-3F]: the “anti-tumor cytotoxicity” value is reported as “produced significant cytotoxicity to lyse NCI-H522 cells”.

Take YILEEIESV [POTE 553-1Y]: the “anti-tumor cytotoxicity” value is listed as “produced significant cytotoxicity to lyse NCI-H522 cells”.

The values are drawn from patent US9394352B2, “Immunogenic POTE peptides and methods of use” (The United States of America, as represented by the …, priority 2010, dated 2016).
